From ChEMBL document CHEMBL1128777, “Inhibition of metalloproteinase by futoenone derivatives” (Bioorg Med Chem Lett, 1995) come the findings set out here.

Structures are written as SMILES.

The target of test [1] is Matrix metalloproteinase-9 (Homo sapiens) (UniProt P14780). In words: Inhibition of human recombinant 92 kDa gelatinase MMP-9 at 10 uM.
Test [2] has as its target T1, Interstitial collagenase (Homo sapiens) (UniProt P03956).
T1 sequence (whole entry): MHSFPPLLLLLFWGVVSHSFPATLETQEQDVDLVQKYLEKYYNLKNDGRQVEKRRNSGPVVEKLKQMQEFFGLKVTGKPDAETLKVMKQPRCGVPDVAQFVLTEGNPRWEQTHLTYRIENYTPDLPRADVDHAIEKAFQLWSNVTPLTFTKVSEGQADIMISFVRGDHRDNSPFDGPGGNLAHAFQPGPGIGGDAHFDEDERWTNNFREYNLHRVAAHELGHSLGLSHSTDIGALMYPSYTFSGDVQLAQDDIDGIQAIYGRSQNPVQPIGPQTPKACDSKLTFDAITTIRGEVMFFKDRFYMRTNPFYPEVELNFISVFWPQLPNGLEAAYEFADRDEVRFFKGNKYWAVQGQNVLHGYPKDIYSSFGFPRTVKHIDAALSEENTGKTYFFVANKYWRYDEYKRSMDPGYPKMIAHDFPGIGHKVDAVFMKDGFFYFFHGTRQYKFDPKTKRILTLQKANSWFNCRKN
In words: Inhibition of human recombinant interstitial collagenase MMP-1 at 10 uM.

In test [3] the target is T2, Stromelysin-1 (Homo sapiens, UniProt P08254). Nature of the test: (§1) Inhibition of human recombinant matrix metalloprotease-3 (Stromelysin) at 10 uM.
Target sequence in this assay (P08254 100-477 limits assumed): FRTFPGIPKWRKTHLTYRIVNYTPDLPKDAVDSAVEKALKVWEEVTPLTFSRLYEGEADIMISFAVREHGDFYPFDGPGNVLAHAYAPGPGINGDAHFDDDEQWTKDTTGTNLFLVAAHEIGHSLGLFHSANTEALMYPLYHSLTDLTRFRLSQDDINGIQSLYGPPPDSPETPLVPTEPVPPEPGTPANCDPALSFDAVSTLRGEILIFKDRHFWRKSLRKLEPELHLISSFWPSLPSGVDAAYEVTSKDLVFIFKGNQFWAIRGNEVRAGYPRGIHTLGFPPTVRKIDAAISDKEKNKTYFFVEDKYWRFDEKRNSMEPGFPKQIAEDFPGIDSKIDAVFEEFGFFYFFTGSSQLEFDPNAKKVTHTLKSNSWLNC
The target of test [4] is T2, Stromelysin-1. The description is as §1. The source holds these as a separate data set.
Target sequence in this assay (P08254 whole entry): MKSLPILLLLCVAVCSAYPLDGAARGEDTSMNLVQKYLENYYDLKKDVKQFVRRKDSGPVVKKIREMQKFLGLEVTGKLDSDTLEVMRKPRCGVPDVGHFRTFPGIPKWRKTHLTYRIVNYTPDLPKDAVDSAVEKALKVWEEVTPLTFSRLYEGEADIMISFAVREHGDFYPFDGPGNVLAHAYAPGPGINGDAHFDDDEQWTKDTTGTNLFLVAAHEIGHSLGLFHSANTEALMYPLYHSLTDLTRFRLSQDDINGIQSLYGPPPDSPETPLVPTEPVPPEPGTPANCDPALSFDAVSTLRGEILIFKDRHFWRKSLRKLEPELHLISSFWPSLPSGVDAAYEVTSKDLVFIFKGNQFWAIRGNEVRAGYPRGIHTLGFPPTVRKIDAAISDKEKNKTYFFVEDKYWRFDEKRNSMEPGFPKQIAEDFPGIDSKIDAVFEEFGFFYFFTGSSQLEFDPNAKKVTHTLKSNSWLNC
The target in test [5] is T2, Stromelysin-1. In words: Inhibition of human recombinant matrix metalloprotease-3 (Stromelysin) at 100 uM.
Target sequence in this assay (P08254 whole entry): as above

Chain of Matrix metalloproteinase-9 (Homo sapiens) (P14780 whole entry): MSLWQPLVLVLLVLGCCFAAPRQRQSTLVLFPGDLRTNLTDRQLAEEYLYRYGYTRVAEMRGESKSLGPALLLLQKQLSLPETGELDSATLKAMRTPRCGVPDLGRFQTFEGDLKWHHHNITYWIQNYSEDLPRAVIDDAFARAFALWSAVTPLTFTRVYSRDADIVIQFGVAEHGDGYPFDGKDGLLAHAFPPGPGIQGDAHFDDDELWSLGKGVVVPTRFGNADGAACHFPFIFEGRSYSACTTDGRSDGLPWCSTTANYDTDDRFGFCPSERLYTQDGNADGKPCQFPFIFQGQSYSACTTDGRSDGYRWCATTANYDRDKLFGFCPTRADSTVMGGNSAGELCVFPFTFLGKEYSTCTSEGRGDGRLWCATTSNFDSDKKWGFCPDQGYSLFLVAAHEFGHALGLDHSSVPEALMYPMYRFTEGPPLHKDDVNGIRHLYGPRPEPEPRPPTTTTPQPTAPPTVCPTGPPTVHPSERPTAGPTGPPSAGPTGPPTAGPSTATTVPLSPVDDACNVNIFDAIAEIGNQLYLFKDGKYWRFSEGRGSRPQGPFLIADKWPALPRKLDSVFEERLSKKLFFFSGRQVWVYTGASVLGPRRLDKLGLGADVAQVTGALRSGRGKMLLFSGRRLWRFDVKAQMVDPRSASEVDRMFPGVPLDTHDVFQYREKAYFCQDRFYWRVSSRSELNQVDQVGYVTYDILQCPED

For orientation: inhibition means the drop in the measured response relative to a control, in per cent. On to `COC1=C[C@]23C[C@H](C[C@H](c4cc5c(cc4Br)OCO5)[C@H]2C)OC3=C(Br)C1=O`, for which the inhibition is 0% in test [1], 0% in test [2] and 38% in test [3].
Turning to `COc1cc2c(cc1SC(C)=O)O[C@@H](C[C@H](c1ccc3c(c1)OCO3)C(C)OC(C)=O)C2` (stereo not given in full), the inhibition in test [1] worked out at 8%; in test [2] it was 23%; in test [3], 58%.
Usually IC50 stands for the point on the concentration scale where inhibition reaches its midpoint. Consider `COC1=C[C@]23C[C@H](C[C@H](c4ccc5c(c4)OCO5)[C@H]2C)OC3=CC1=O` [FUTOENONE], for which the inhibition turned out to be 0% in test [1], 16% in test [2] and 35% in test [3]. Also, the IC50 in test [4] was < 1 µM.
Taken in the same sequence, the figures for `COc1cc2c(cc1S)O[C@@H](C[C@H](c1ccc3c(c1)OCO3)C(C)O)C2` (stereo not given in full) were 44%, 75%, 98% and 0.6 µM.
As for `C=CCc1c(O)c(OC)cc2c1O[C@@H](C[C@H](c1ccc3c(c1)OCO3)C(C)O)C2` (stereo not given in full), the results for the inhibition in test [1], in test [2] and in test [3] were 0%, 0% and 36%, respectively.
Consider `COC1=C[C@]23C[C@H](C[C@H](c4ccc5c(c4)OCO5)[C@H]2C)OC3=CC1=S`, for which the inhibition stood at 0% in test [1], 0% in test [2] and 42% in test [3].
On to `CNC(=O)[C@H](Cc1c[nH]c2ccccc12)NC(=O)[C@@H](CC(=O)NO)CC(C)C` [ILOMASTAT], for which the inhibition in test [1], in test [2] and in test [3] was 100% in each case. The IC50 in test [5] came out at 0.028 µM.
Consider `COc1cc2c(cc1O)O[C@@H](C[C@H](c1ccc3c(c1)OCO3)C(C)O)C2` (stereo not given in full), for which the inhibition in test [1] is 0%; in test [2], 0%; in test [3], 34%.
Consider `COC1=C[C@]23C[C@H](C[C@H](c4ccc5c(c4)OCO5)[C@H]2C)OC3=C(Br)C1=O`, for which the results for the inhibition in test [1], in test [2] and in test [3] were 22%, 0% and 38%, respectively.
